Measured values from US20260042764A1, “COMPOSITIONS AND METHODS FOR INHIBITION OF KRAS” (TheRas, Inc., priority 2022, published 2026).

How the values were obtained:
[1] = target: T1, Avi-KRAS G12V (1-169) GppNHp/RAF1 RBD-3xFLAG (52-151) (Homo sapiens, UniProt P01116, G12V); assay: Raf1-KRAS G12V-GppNHP disruption HTRF assay (Biological Example 1); assay type: binding; conditions: KRAS G12V, GppNHp-loaded; Table 11
T1 construct: Avi-KRAS G12V (1-169)
Experimental: (§1) A protein:protein interaction (PPI) Homogeneous Time Resolved Fluorescence (HTRF) assay was used to determine the effectiveness of compounds of the present disclosure in disrupting KRAS protein and effector RAF1 binding.
(§2) The assay buffer included: 50 mM Tris pH 7.5, 100 mM NaCl, 5 mM MgCl2, 0.1% BSA, 0.01% Tween, and 10% DMSO. The bead buffer included: 50 mM Tris pH 7.5, and 0.01% Tween 20. Assay volume of 20 μL was used in a 384 well plate-low volume format.
(§3) The HTRF assay employed the following protocol:
(§4) Protein mix was prepared in assay buffer, and dispensed on plates, 10 μL per well, then incubated for 1 h at room temperature, with 700 rpm shaking, Reagents mix was prepared and dispensed on plates, 10 μL per well, then incubated for 1 h at room temperature, with 700 rpm shaking.
(§5) Data was reported as percentage of activity, with DMSO as 100%. Data was plotted and analyzed using Prism 8.

[2] = target: T2, Avi-KRAS G12D (1-169) GppNHp/RAF1 RBD-3xFLAG (52-151) (Homo sapiens, UniProt P01116, G12D); assay: Raf1-KRAS G12D-GppNHP disruption HTRF assay (Biological Example 1); assay type: binding; conditions: KRAS G12D, GppNHp-loaded
T2 construct: Avi-KRAS G12D (1-169)
T2 sequence (P01116 1-169 isoform P01116-2 G12D): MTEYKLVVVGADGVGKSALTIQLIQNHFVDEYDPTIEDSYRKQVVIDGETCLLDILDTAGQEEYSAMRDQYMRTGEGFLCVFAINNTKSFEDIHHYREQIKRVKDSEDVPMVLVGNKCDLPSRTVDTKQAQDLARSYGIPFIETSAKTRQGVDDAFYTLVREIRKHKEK
Experimental: as §1, §2, §3, §4, §5

[3] = target: T3, Avi-KRAS WT (1-169) GppNHp/RAF1 RBD-3xFLAG (52-151) (Homo sapiens, UniProt P01116); assay: Raf1-KRAS WT-GppNHP disruption HTRF assay (Biological Example 1); assay type: binding; conditions: KRAS WT, GppNHp-loaded; Table 11
T3 construct: Avi-KRAS WT (1-169)
T3 sequence (P01116 1-169 isoform P01116-2): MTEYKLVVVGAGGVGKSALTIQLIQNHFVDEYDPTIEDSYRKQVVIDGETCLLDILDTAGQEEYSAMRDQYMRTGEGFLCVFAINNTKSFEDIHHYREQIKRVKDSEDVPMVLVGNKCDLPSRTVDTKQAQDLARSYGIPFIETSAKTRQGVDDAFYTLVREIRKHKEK
Experimental: as §1, §2, §3, §4, §5

GP2d cells (KRAS G12D) = assay: Cell-based pERK HTRF assay in GP2d cell (Biological Example 2); conditions: GP2d (KRAS G12D) cells
Experimental: A pERK assay (Perkin Elmer) was used to determine the effectiveness of compounds in disrupting KRAS G12D protein/effector signaling in cells.
On Day 1, cells (GP2d) were seeded into 96-well plates at 3×10^4 cells/well in 80 μL complete growth media (DMEM, 10% FBS).
(§6) On Day 2, cells were treated with compounds at 0.25% DMSO. The source plate was created with compounds diluted in media at 5-fold the final assay concentration. The compounds were run in a 9-point concentration curve starting at 1 μM or in a 9-point concentration curve starting at 100 nM, with a half-log dilution between concentrations. Twenty μL was transferred onto the cell plates (final volume in wells was 100 μL). Plates were harvested after 60 min incubation by aspirating media and adding kit-supplied 1x supplemented lysis buffer to all wells (50 μL per well). Plates were then placed on a plate shaker and incubated at 850 rpm for an additional 30 min.
Antibody mixture solution was prepared by diluting aliquoted d2 and Eu Cryptate antibodies 1:20 in kit supplied detection buffer, and mixing the diluted antibodies solutions (1:1 v:v).
(§7) Samples were homogenized by pipetting up and down and then transferred (16 μL of cell lysates) from the 96-well cell culture plate to two wells of the HTRF 384-well detection plate containing the antibody solution. Plates were centrifuged (524 g for 1 min) and allowed to incubate between 4 and 24 h at room temperature. Maximum signal is reached after 4 h incubation time and remains stable over a period of 24 hours. Therefore, readings can be made between 4 and 24 h of incubation. Plates were centrifuged again (524 g for Imin), then analyzed on the EnVision plate reader using the following settings: Excitation 320 nm, Bandwidth 75 nm; Emission 615 nm, Bandwidth 85 nm; Gain 100%; Flashes 100; Lag 60 μs.

SW620 cells (KRAS G12V) = assay: Cell-based pERK HTRF assay in SW620 cell (Biological Example 4)
Experimental: A pERK assay (Perkin Elmer) was used to determine the effectiveness of compounds in disrupting KRAS G12V protein/effector signaling in cells.
On Day 1, cells (SW620) were seeded into 96-well plates at 3×10^4 cells/well in 80 μL complete growth media (RPMI, 10% FBS).
as §6, with “μM,” for “μM or in a 9-point concentration curve starting at 100 nM,”, “4 h” for “60 min”
Antibody mixture solution was prepared by diluting aliquoted d2 and Eu Cryptate antibodies 1:20 in kit supplied detection buffer and mixing the diluted antibodies solutions (1:1 v:v).
as §7, with “Imin)” for “1 min)”, “Maximum signal is reached after 4 h incubation time and remains stable over a period of 24 hours. Therefore, readings can be made between 4 and 24 h of incubation.” left out, “1 min),” for “Imin),”, “En Vision” for “EnVision”

[4] = SW620 (KRAS G12V) cells, pERK HTRF, class symbols

T1 sequence (P01116 1-169 isoform P01116-2 G12V): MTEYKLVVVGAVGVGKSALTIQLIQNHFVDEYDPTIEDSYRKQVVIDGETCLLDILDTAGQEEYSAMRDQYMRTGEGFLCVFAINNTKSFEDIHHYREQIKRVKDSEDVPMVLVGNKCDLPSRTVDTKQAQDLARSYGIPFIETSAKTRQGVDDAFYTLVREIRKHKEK

Row | IC50 [1] | IC50 ([2]; Table 11) | IC50 [3] | IC50 (GP2d cells (KRAS G12D); GP2d, pERK HTRF) | Compound | further results
1 | 1 to 10 µM | 1 to 10 µM | 0.1 to 1 µM | – | CO[C@H]1CN2CCC[C@]2(COc2nc(N(C)[C@H]3C[C@@H](O)C3)c3cc(C(F)(F)F)c(-c4ccc(F)c5sc(N)nc45)c(F)c3n2)C1 (atropisomer, axis not shown) [Compound 14] | –
2 | – | – | – | > 1 µM | CN(c1nc(OCC23CCCN2CCC3)nc2c(F)c(-c3ccc(F)c4sc(N)nc34)c(C(F)(F)F)cc12)C1CC(O)C1 (stereo not drawn) [Compound 2] | –
3 | – | – | – | – | CCN(c1nc(OC[C@@]23CCCN2C[C@H](F)C3)nc2c(F)c(-c3ccc(F)c4sc(N)c(C#N)c34)c(C(F)(F)F)cc12)[C@H]1CCN(C(=O)OC2CC(OC)C2)C1 (stereo partly drawn) [Compound 792] | IC50 (SW620 cells (KRAS G12V); [4]): < 0.1 µM; IC50 ([2]; class symbols): < 0.1 µM; IC50 (GP2d cells (KRAS G12D); pERK HTRF, class symbols): < 0.1 µM
4 | > 10 µM | > 10 µM | 1 to 10 µM | – | CO[C@@H]1C[C@@H](COc2nc(N(C)[C@H]3C[C@@H](O)C3)c3cc(C(F)(F)F)c(-c4ccc(F)c5sc(N)nc45)c(F)c3n2)N(C)C1 (atropisomer, axis not shown) [Compound 17] | –
5 | 1 to 10 µM | 1 to 10 µM | 1 to 10 µM | – | CN(c1nc(OCC23CCCN2CCC3)nc2c(F)c(-c3ccc(F)c4sc(N)nc34)c(C(F)(F)F)cc12)[C@H]1C[C@H](O)C1 (atropisomer, axis not shown) [Compound 3] | –
6 | – | 0.1 to 1 µM | – | – | CN(c1nc(OC[C@@]23CCCN2C[C@H](F)C3)nc2c(F)c(-c3ccc(F)c4sc(N)c(C#N)c34)c(C(F)(F)F)cc12)[C@@H]1CCN(C(=O)CC#N)C1 (atropisomer, axis not shown) [Compound 102] | IC50 (GP2d cells (KRAS G12D); pERK HTRF): < 0.1 µM
7 | – | – | – | – | CCN(c1nc(OC[C@@]23CCCN2C[C@H](F)C3)nc2c(F)c(-c3ccc(F)c4sc(N)c(C#N)c34)c(C(F)(F)F)cc12)[C@H]1C[C@H](C)N(C(=O)[C@@H](C)OC)C1 (atropisomer, axis not shown) [Compound 763] | IC50 (SW620 cells (KRAS G12V); [4]): < 0.1 µM; IC50 ([2]; class symbols): 0.1 to 1 µM; IC50 (GP2d cells (KRAS G12D); pERK HTRF, class symbols): < 0.1 µM
8 | – | – | – | > 1 µM | CN(c1nc(OCC2(CN3CCOCC3)CC2)nc2c(F)c(-c3ccc(F)c4sc(N)nc34)c(C(F)(F)F)cc12)C1CC(O)C1 (stereo not drawn) [Compound 16] | –
9 | > 10 µM | 1 to 10 µM | 1 to 10 µM | – | Nc1nc2c(-c3c(C(F)(F)F)cc4c(N[C@H]5C[C@@H](O)C5)nc(OCC56CCCN5CCC6)nc4c3F)ccc(F)c2s1 (atropisomer, axis not shown) [Compound 9] | –
10 | > 10 µM | > 10 µM | > 10 µM | – | CCC(=O)N1C2CCC1CN(c1nc(OC[C@@]34CCCN3C[C@H](F)C4)nc3c(F)c(-c4ccc(F)c5sc(N)nc45)c(C(F)(F)F)cc13)C2 [Compound 97] | –
11 | > 10 µM | > 10 µM | 1 to 10 µM | – | CN1C[C@H](F)C[C@H]1COc1nc(N(C)[C@H]2C[C@@H](O)C2)c2cc(C(F)(F)F)c(-c3ccc(F)c4sc(N)nc34)c(F)c2n1 (atropisomer, axis not shown) [Compound 12] | –
12 | > 10 µM | 1 to 10 µM | 1 to 10 µM | – | Nc1nc2c(-c3c(C(F)(F)F)cc4c(N[C@H]5CCC[C@@H](O)C5)nc(OCC56CCCN5CCC6)nc4c3F)ccc(F)c2s1 (atropisomer, axis not shown) [Compound 67] | –
13 | > 10 µM | 1 to 10 µM | 1 to 10 µM | – | Nc1nc2c(-c3c(C(F)(F)F)cc4c(N5CCC(O)CC5)nc(OCC56CCCN5CCC6)nc4c3F)ccc(F)c2s1 [Compound 51] | –
14 | > 10 µM | 1 to 10 µM | > 10 µM | – | Nc1nc2c(-c3c(C(F)(F)F)cc4c(N5CCCC(CO)C5)nc(OCC56CCCN5CCC6)nc4c3F)ccc(F)c2s1 (stereo not drawn) [Compound 54] | –
15 | 1 to 10 µM | 0.1 to 1 µM | 0.1 to 1 µM | – | CO[C@H]1CN2CCC[C@@]2(COc2nc(N(C)[C@H]3C[C@@H](O)C3)c3cc(C(F)(F)F)c(-c4ccc(F)c5sc(N)nc45)c(F)c3n2)C1 (atropisomer, axis not shown) [Compound 13] | –
16 | – | 0.1 to 1 µM | – | – | CCN(CCCO)c1nc(OC[C@@]23CCCN2C[C@H](F)C3)nc2c(F)c(-c3ccc(F)c4sc(N)c(C#N)c34)c(C(F)(F)F)cc12 [Compound 75] | IC50 (GP2d cells (KRAS G12D); pERK HTRF): < 0.1 µM
17 | – | – | – | > 1 µM | CO[C@H]1CN2CCC[C@]2(COc2nc(N(C)C3CC(O)C3)c3cc(C(F)(F)F)c(-c4ccc(F)c5sc(N)nc45)c(F)c3n2)C1 (stereo partly drawn) [Compound 14] | –
18 | – | > 10 µM | – | – | CN(c1nc(OCC23CCCN2CCC3)nc2c(F)c(-c3ccc(F)c4sc(N)nc34)c(C(F)(F)F)cc12)C1CC(O)C12CCCC2 (single isomer, unassigned) [Compound 11] | –
19 | – | – | – | < 0.1 µM | CN(c1nc(OCC2(CN3CCOCC3)CC2)nc2c(F)c(-c3ccc(F)c4sc(N)c(C#N)c34)c(C(F)(F)F)cc12)C1CC(O)C1 (stereo not drawn) [Compound 122] | –
20 | – | – | – | 0.1 to 1 µM | CN(c1nc(OC[C@@]23CCCN2C[C@H](F)C3)nc2c(F)c(-c3ccc(F)c4sc(N)nc34)c(C(F)(F)F)cc12)C1CC(O)C1 (stereo partly drawn) [Compound 8] | –
21 | 1 to 10 µM | 1 to 10 µM | 1 to 10 µM | – | Nc1nc2c(-c3c(C(F)(F)F)cc4c(N5CC6CCC(C5)C6O)nc(OCC56CCCN5CCC6)nc4c3F)ccc(F)c2s1 (stereo not drawn) [Compound 52] | –
22 | – | – | – | > 1 µM | CO[C@@H]1C[C@@H](COc2nc(N(C)C3CC(O)C3)c3cc(C(F)(F)F)c(-c4ccc(F)c5sc(N)nc45)c(F)c3n2)N(C)C1 (stereo partly drawn) [Compound 17] | –
23 | – | – | – | – | CCN(c1nc(OC[C@@]23CCCN2C[C@H](F)C3)nc2c(F)c(-c3ccc(F)c4sc(N)c(C#N)c34)c(C(F)(F)F)cc12)C1CC(C(=O)N(C)C)C1 (stereo partly drawn) [Compound 950] | IC50 (SW620 cells (KRAS G12V); Homo sapiens, SW-620, SW620 (KRAS G12V) cells): < 0.1 µM; IC50 (GP2d cells (KRAS G12D); GP2d): < 0.1 µM
24 | – | – | – | > 1 µM | CN(c1nc(OC[C@@H]2C[C@@H](F)CN2C)nc2c(F)c(-c3ccc(F)c4sc(N)nc34)c(C(F)(F)F)cc12)C1CC(O)C1 (stereo partly drawn) [Compound 12] | –
25 | – | – | – | > 1 µM | CO[C@H]1CN2CCC[C@@]2(COc2nc(N(C)C3CC(O)C3)c3cc(C(F)(F)F)c(-c4ccc(F)c5sc(N)nc45)c(F)c3n2)C1 (stereo partly drawn) [Compound 13] | –
26 | – | – | – | 0.1 to 1 µM | CN(c1nc(OC[C@@]23CCCN2C[C@H](F)C3)nc2c(F)c(-c3ccc(F)c4sc(N)c(C#N)c34)c(C(F)(F)F)cc12)C1(CC#N)CC(O)C1 (stereo partly drawn) [Compound 249] | IC50 (SW620 cells (KRAS G12V); SW620 (KRAS G12V) cells, pERK HTRF): 0.1 to 1 µM
27 | – | – | – | < 0.1 µM | CN(c1nc(OC[C@@]23CCCN2C[C@H](F)C3)nc2c(F)c(-c3ccc(F)c4sc(N)c(C#N)c34)c(C(F)(F)F)cc12)C1CC(F)C1 (stereo partly drawn) [Compound 160] | –
